This note sets out measurements from patent publication US11104674B2 (Hoffmann-La Roche Inc., priority 2016, dated 2021).

Assay [1] has as its system HBsAg. Nature of the assay: HBsAg assay (chemiluminescence immunoassay of secreted HBsAg). Particulars: HepG2.2.15 cells, CLIA of culture supernatant. In kind it is cell-based, HBV. An outline of the steps:
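HepG2.2.15 cells, in duplicate, treated with three-fold serial compound dilutions (1% DMSO final); secreted HBsAg in supernatant quantified by chemiluminescence immunoassay; IC50 is the concentration reducing HBsAg secretion by 50% versus the DMSO control.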

Assay [2] concerns HBV DNA. Nature of the assay: HBV DNA assay (real-time qPCR of extracellular HBV DNA). The note with it: Hepatitis B virus, 144 h; Anti HBV DNA production activity in HepG2.2.15 cells; supernatant collected six days after treatment. In kind it is cell-based. Here is the method: HepG2.2.15 cells (Acs et al. Proc Natl Acad Sci USA, 84, (1987), 4641-4), a constitutively HBV-expressing cell line were cultured in DMEM+Glutamax-I medium (Invitrogen, Carlsbad, Calif., USA), supplemented with 10% fetal bovine serum (Invitrogen) and G418 (Invitrogen) at a final concentration of 200 mg/L and maintained in 5% CO2 at 37° C.
The assay employs real-time qPCR (TaqMan) to directly measure extracellular HBV DNA copy number in the cell supernatant. HepG2.2.15 cells were plated in 96-well microtiter plates before treatment with complete medium (DMEM, Glutamax, 10% FBS, 1% Penicillin/Streptomycin, 250 μg/mL Genetycin, final DMSO concentration is 1%/o). Only the interior wells were utilized to reduce “edge effects” observed during cell culture, the exterior wells were filled with complete medium to help minimize sample evaporation. The HepG2.2.15 cells were treated 1 h later with various concentrations of a test compound in duplicate (top concentration used at 5 μM, 2 μM or 0.5 μM according to the HBsAg IC50 observed, with ⅓ successive dilutions (total of 10 dilutions). Six days following the initial administration of the test compound, the cell culture supernatant was collected; DNA extraction was performed by automated system (Magnapure) and then used in a real-time qPCR/TaqMan assay to determine HBV DNA copy numbers. Antiviral activity was calculated from the reduction in HBV DNA levels (IC50).
The compounds of the present invention were tested for their capacity to inhibit HBV DNA as described herein.

Where [3] appears, read: Hepatitis B virus, HepG2.2.15, HBsAg secretion.

A word on the IC50: it is the concentration at which inhibition is half-maximal. Low values mean inhibition by little substance, high ones a need for much substance.

With `COC1CCN(c2cc(F)nc(N3CCc4nc(-c5ncccn5)ncc4C3C)c2)C1` (stereo not shown) [Example 20, 6-[6-fluoro-4-(3-methoxypyrrolidin-1-yl)-2-pyridyl]-5-methyl-2-pyrimidin-2-yl-7,8-dihydro-5H-pyrido[4,3-d]pyrimidine], the IC50 is 10 nM in assay [1] (setting [3]) and 0.15 nM in assay [2]. Take `CCS(=O)(=O)N1CCN(c2cc(F)nc(N3CCc4nc(-c5ncccn5)ncc4C3C)c2)CC1` (stereo not shown) [Example 90, 6-[4-(4-ethylsulfonylpiperazin-1-yl)-6-fluoro-2-pyridyl]-5-methyl-2-pyrimidin-2-yl-7,8-dihydro-5H-pyrido[4,3-d]pyrimidine]: the IC50 was determined as 5 nM in assay [1] (setting [3]) and 1.1 nM in assay [2].

Take `C[C@@H]1c2cnc(-c3ncccn3)nc2CCN1c1cc(N2CCN(S(C)(=O)=O)CC2)cc(F)n1` [Example 97, (−)-6-[6-Fluoro-4-(4-methylsulfonylpiperazin-1-yl)-2-pyridyl]-5-methyl-2-pyrimidin-2-yl-7,8-dihydro-5H-pyrido[4,3-d]pyrimidine]: the IC50 worked out at 3 nM in assay [1] (HBsAg secretion) and 1.9 nM in assay [2]. In the case of `COC1CN(c2cc(F)nc(N3CCc4nc(-c5ncccn5)ncc4C3C)c2)C1` (stereo not shown) [Example 112, 6-[6-fluoro-4-(3-methoxyazetidin-1-yl)-2-pyridyl]-5-methyl-2-pyrimidin-2-yl-7,8-dihydro-5H-pyrido[4,3-d]pyrimidine], the IC50 in assay [1] (setting [3]) turned out to be 6 nM; in assay [2], 0.6 nM. As for `CC1c2cnc(-c3ncccn3)nc2CCN1c1cc(N2CCCS2(=O)=O)cc(F)n1` (stereo not shown) [Example 115, 2-[2-Fluoro-6-(5-methyl-2-pyrimidin-2-yl-7,8-dihydro-5H-pyrido[4,3-d]pyrimidin-6-yl)-4-pyridyl]-1,2-thiazolidine1,1-dioxide], the IC50 came to 4 nM in assay [1] (setting [3]) and 3.2 nM in assay [2]. The matching figures for `CC1c2cnc(-c3ncccn3)nc2CCN1c1cc(N2CC(F)C2)cc(F)n1` (stereo not shown) [Example 123, 6-[6-fluoro-4-(3-fluoroazetidin-1-yl)-2-pyridyl]-5-methyl-2-pyrimidin-2-yl-7,8-dihydro-5H-pyrido[4,3-d]pyrimidine]: 12 nM and 0.43 nM.

Regarding `CC(=O)N(C)c1cc(F)nc(N2CCc3nc(-c4ncccn4)ncc3C2C)c1` (stereo not shown) [Example 154, N-[2-Fluoro-6-(5-methyl-2-pyrimidin-2-yl-7,8-dihydro-5H-pyrido[4,3-d]pyrimidin-6-yl)-4-pyridyl]-N-methyl-acetamide], the IC50 in assay [1] (setting [3]) worked out at 69 nM. For `CCC(=O)N(C)c1cc(F)nc(N2CCc3nc(-c4ncccn4)ncc3C2C)c1` (stereo not shown) [Example 155, N-[2-Fluoro-6-(5-methyl-2-pyrimidin-2-yl-7,8-dihydro-5H-pyrido[4,3-d]pyrimidin-6-yl)-4-pyridyl]-N-methyl-propanamide], in assay [1] (setting [3]), the concentration for half-maximal inhibition (IC50) was determined as 86 nM. For `CC1c2cnc(-c3ncccn3)nc2CCN1c1cc(N(C)C(=O)C2CC2)cc(F)n1` (stereo not shown) [Example 156, N-[2-Fluoro-6-(5-methyl-2-pyrimidin-2-yl-7,8-dihydro-5H-pyrido[4,3-d]pyrimidin-6-yl)-4-pyridyl]-N-methyl-cyclopropanecarboxamide], it took 30 nM to reach half-maximal inhibition in assay [1] (setting [3]) (IC50). In assay [1] (setting [3]), `CC1c2cnc(-c3ncccn3)nc2CCN1c1cc(N2CCNC2=O)cc(F)n1` (stereo not shown) [Example 157, 1-[2-Fluoro-6-(5-methyl-2-pyrimidin-2-yl-7,8-dihydro-5H-pyrido[4,3-d]pyrimidin-6-yl)-4-pyridyl]imidazolidin-2-one] yielded a concentration for half-maximal inhibition (IC50) of 6 nM. As to `CC1c2cnc(-c3ncccn3)nc2CCN1c1cc(F)nc(N2CC3(COC3)C2)c1` (stereo not shown) [Example 158, 6-[6-Fluoro-4-(5-methyl-2-pyrimidin-2-yl-7,8-dihydro-5H-pyrido[4,3-d]pyrimidin-6-yl)-2-pyridyl]-2-oxa-6-azaspiro[3.3]heptane], inhibition in assay [1] (setting [3]) was half-maximal at 48 nM (IC50). Same read-out and setting: the value for `CC1c2cnc(-c3ncccn3)nc2CCN1c1cc(N(C)S(C)(=O)=O)cc(F)n1` (stereo not shown) [Example 159, N-[2-fluoro-6-(5-methyl-2-pyrimidin-2-yl-7,8-dihydro-5H-pyrido[4,3-d]pyrimidin-6-yl)-4-pyridyl]-N-methyl-methanesulfonamide] was 14 nM; that for `CC1c2cnc(-c3ncccn3)nc2CCN1c1cc(N(C)S(=O)(=O)C2CC2)cc(F)n1` (stereo not shown) [Example 160, N-[2-fluoro-6-(5-methyl-2-pyrimidin-2-yl-7,8-dihydro-5H-pyrido[4,3-d]pyrimidin-6-yl)-4-pyridyl]-N-methyl-cyclopropanesulfonamide] was 6 nM; that for `CC1c2cnc(-c3ncccn3)nc2CCN1c1cc(N(C)S(=O)(=O)c2ccccc2)cc(F)n1` (stereo not shown) [Example 161, N-[2-Fluoro-6-(5-methyl-2-pyrimidin-2-yl-7,8-dihydro-5H-pyrido[4,3-d]pyrimidin-6-yl)-4-pyridyl]-N-methyl-benzenesulfonamide] was 5 nM.

In assay [1] (setting [3]), `CC1c2cnc(-c3ncccn3)nc2CCN1c1cc(N2CCCCS2(=O)=O)cc(F)n1` (stereo not shown) [Example 162, 2-[2-Fluoro-6-(5-methyl-2-pyrimidin-2-yl-7,8-dihydro-5H-pyrido[4,3-d]pyrimidin-6-yl)-4-pyridyl]thiazinane1,1-dioxide] registered an IC50 of 15 nM. `CC1c2cnc(-c3ncccn3)nc2CCN1c1cc(N(C)C(=O)c2ccccc2)cc(F)n1` (stereo not shown) [Example 163, N-[2-Fluoro-6-(5-methyl-2-pyrimidin-2-yl-7,8-dihydro-5H-pyrido[4,3-d]pyrimidin-6-yl)-4-pyridyl]-N-methyl-benzamide] returned a half-inhibitory concentration (IC50) in assay [1] (setting [3]) of 91 nM.
